Broadly, the Ki is the dissociation constant of the complex between target and ligand, obtained from inhibition or displacement. A high value points to lower affinity. For orientation: Kb means the affinity of an antagonist, worked out from how it opposes an agonist.

This is an account of results in patent US5670501A, “N-substituted 9-alkyladenines” (Discovery Therapeutics, Inc., priority 1994, dated 1997).

Assay [1] deals with T1, adenosine A1 receptor (Bos taurus, UniProt P28190).
T1 construct: were homogenized with a Brinkman polytron and the membranes were collected by centrifugation; from tissue; host or cells: bovine caudate membranes
T1 sequence (P28190 1-326): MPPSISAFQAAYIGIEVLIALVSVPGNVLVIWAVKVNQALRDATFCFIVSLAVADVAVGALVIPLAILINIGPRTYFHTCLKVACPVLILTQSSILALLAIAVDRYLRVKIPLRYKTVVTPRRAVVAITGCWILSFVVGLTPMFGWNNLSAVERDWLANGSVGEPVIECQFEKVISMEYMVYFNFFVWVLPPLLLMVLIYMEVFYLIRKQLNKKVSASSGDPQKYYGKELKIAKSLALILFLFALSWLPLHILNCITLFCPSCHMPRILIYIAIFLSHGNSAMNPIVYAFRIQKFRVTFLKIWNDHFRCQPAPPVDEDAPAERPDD
Put plainly: Receptor affinity (radioligand binding), A1, [3H]CHA. The arrangement: species or system bovine. As to conditions: radioligand binding, A2 Ki /A1 Ki. On the procedure: (§1) 1. Receptor Affinity Experiments (Radioligand Binding)
(§2) Tissues (bovine caudate, guinea pig cortex, guinea pig striatum) were homogenized with a Brinkman polytron and the membranes were collected by centrifugation at 40,000×g at 4° C. for 10 min. The membranes were washed by resuspension and centrifugation, resuspended, and incubated in the presence of 1 U/ml adenosine deaminase for 15-30 min. at 37° C. The membranes were diluted, centrifuged once, and resuspended to a final concentration of 0.5-2 mg protein/ml. Adenosine deaminase (0.1 U/ml) was included in the final resuspension. Assays were initiated by addition of membranes. The compounds of the present invention were subjected to the following experimental conditions: A1 determinations/incubated with [^3 H]CHA at room temperature for 2 hours, A2 determinations/incubated with [^3 H]NECA at room temperature for 1 hour. Assays were terminated by filtration, and the filters were counted in scintillation counters.

In assay [2] the target is T2, adenosine A1 receptor (Cavia porcellus, UniProt P47745).
T2 construct: from tissue; host or cells: isolated guinea pig left atria
T2 sequence (P47745 1-326): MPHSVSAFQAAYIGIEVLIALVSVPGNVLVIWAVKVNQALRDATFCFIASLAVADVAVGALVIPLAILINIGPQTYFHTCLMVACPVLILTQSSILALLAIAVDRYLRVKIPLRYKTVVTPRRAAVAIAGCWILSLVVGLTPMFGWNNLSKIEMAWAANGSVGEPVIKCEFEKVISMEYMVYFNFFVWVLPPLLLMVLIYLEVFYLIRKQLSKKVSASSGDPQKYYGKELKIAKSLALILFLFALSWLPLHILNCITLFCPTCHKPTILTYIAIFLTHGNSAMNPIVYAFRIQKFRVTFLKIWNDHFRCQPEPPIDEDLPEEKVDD
Nature of the assay: Receptor affinity (radioligand binding), A1, [3H]CHA, guinea pig tissue. As to conditions: room temperature, 2 hours, value obtained using guinea pig tissue. On the procedure: as §1, §2
*This value was obtained using guinea pig tissue.

The next assay concerns the target adenosine A2 receptor. Nature of the assay: Receptor affinity (radioligand binding), A2, [3H]NECA. More on the design: species or system bovine / guinea pig. Conditions: room temperature, 1 hour. On the procedure:
as §1, §2

Assay [3] deals with T2, adenosine A1 receptor. Put plainly: A1 in vitro functional test: negative inotropic response, left atria, antagonism of NECA. It counts as cell-based, guinea pig. On the procedure: 2. Adenosine--A1 /A2 In Vitro Functional Tests
(A1 Assay: Negative inotropic response)-Guinea pig left atria were placed in organ baths filled with Krebs Henseleit solution gassed with 95% O2 and 5% CO2 and maintained at a temperature of 31° C. An initial resting tension of 1 gm. was placed on each tissue, which was allowed to equilibrate. Atria were stimulated electrically to produce twitch responses. A dose-response curve for the inhibition of the electrically-evoked twitch response was obtained by cumulative addition of the adenosine agonist […]. After the washout of the tissue, a fixed concentration of test compound was added and the tissue allowed to equilibrate for 1 hr. before cumulative additions of the adenosine agonist 5'-N-ethylcarboxamidoadenosine (NECA) to generate a new dose response curve. This procedure was repeated with different fixed concentrations of test compounds to generate a family of dose response curves. Schild plots were constructed from the resultant concentration-effect curves, and KB (antagonist dissociation constant) values were obtained. The results (see Table VII) are expressed as KB values (concentration of test compound such that one-half of the tissue adenosine receptor population is occupied by the test compound).

On to `CC(C)N(C)c1nc2c(N[C@H]3C[C@H]4CC[C@@H]3C4)ncnc2n1C` (relative stereo) [Example 13, (±)-N^6-(endo-2'-norbornyl)-8-isopropylmethylamino-9-methyladenine], for which the “Selectivity Ratio (A2 Ki /A1 Ki)” value on adenosine A1 receptor [1] came out at 166. Besides, the inhibition constant Ki at adenosine A1 receptor [2] came to 6.31 nM; on adenosine A2 receptor, 1050 nM. Also, on adenosine A1 receptor [3] (functional, A2 KB /A1 KB), the “Selectivity Ratio (A2 KB /A1 KB)” value is recorded as over 20000. Further, on adenosine A1 receptor [3] (guinea pig left atria, electrically evoked twitch, NECA agonist, 31° C, Schild plot, read-out: A1 KB (antagonist dissociation constant)), the Kb was found to be 5 nM.
